# ChEMBL document CHEMBL1201862, “PubChem BioAssay data set” (2004)
# Active and inactive are the calls of the source.
# What was measured:
# [1] = reduction of Shn3 3'UTR-driven luciferase in osteoblasts – cell-based, Clone20 osteoblasts, firefly luciferase, cherry-picked, dose response (AID 624132); format: functional;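 note: firefly luciferase luminescence from reporter carrying the Shn3 3'UTR in osteoblasts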
# [2] = target: T1, Replicative DNA helicase DnaB (Mycobacterium tuberculosis, UniProt P9WMR3); assay: DnaB intein splicing inhibitors, dose response, biochemical, cell-free fluorescence (AID 449749); format: functional
# T1 sequence (P9WMR3 whole entry): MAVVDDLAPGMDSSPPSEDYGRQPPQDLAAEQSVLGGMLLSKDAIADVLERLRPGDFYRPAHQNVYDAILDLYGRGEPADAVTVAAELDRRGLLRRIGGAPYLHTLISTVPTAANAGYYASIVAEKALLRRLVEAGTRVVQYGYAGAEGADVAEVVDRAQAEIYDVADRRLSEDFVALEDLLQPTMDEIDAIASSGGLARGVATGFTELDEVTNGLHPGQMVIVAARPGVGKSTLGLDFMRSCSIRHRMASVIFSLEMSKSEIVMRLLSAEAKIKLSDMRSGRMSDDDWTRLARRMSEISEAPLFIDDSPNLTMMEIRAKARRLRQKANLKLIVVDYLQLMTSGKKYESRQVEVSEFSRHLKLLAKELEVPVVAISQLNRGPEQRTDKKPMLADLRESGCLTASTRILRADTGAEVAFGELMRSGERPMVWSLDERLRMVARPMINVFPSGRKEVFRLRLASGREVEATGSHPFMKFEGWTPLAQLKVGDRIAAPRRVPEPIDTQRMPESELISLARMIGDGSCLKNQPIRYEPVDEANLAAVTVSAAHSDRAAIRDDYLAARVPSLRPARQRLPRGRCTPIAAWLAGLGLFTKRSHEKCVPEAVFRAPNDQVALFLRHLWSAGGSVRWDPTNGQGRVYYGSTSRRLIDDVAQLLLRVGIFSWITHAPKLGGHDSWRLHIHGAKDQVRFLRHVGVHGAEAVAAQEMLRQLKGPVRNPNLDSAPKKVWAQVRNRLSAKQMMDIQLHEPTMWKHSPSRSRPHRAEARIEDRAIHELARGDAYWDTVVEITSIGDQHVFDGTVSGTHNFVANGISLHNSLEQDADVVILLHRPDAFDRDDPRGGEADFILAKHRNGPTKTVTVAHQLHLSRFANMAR
# [3] = non-specific 3'UTR reporter inhibition in Clone20-Shn3RL – cell-based, Renilla luciferase, cherry-picked, counter-screen for Shn3 inhibitor project, dose response (AID 624133); format: functional
# [4] = target: Hepatocyte nuclear factor 4-alpha (Homo sapiens, UniProt P41235); format: functional, cell-based;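 note: biochemical luminescence-based dose-response counterscreen measuring inhibition of HNF4 dimerization, run alongside a screen for blockers of ABHD5–perilipin-5 interaction; split luciferase complementation of HNF4 fusion proteins in cell lysate measuring dimerization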
# [5] = target: Potassium voltage-gated channel subfamily KQT member 2 (Rattus norvegicus, UniProt O88943, W236L); assay: potentiation of rat KCNQ2 current – cell-based, automated electrophysiology, mechanism study for KCNQ2 potentiator project, dose response (AID 2603); format: functional
# Protein RecA = target: T2, Protein RecA (Mycobacterium tuberculosis, UniProt P9WHJ3); assay: Fluorescence Cell-Free Homogeneous Dose Retest to Identify Inhibitors of RecA-Intein Splicing Activity. [Related pubchem assays (depositor defined):AID2097, AID2223, AID489010, AID492950]; format: functional
# T2 sequence (P9WHJ3 whole entry): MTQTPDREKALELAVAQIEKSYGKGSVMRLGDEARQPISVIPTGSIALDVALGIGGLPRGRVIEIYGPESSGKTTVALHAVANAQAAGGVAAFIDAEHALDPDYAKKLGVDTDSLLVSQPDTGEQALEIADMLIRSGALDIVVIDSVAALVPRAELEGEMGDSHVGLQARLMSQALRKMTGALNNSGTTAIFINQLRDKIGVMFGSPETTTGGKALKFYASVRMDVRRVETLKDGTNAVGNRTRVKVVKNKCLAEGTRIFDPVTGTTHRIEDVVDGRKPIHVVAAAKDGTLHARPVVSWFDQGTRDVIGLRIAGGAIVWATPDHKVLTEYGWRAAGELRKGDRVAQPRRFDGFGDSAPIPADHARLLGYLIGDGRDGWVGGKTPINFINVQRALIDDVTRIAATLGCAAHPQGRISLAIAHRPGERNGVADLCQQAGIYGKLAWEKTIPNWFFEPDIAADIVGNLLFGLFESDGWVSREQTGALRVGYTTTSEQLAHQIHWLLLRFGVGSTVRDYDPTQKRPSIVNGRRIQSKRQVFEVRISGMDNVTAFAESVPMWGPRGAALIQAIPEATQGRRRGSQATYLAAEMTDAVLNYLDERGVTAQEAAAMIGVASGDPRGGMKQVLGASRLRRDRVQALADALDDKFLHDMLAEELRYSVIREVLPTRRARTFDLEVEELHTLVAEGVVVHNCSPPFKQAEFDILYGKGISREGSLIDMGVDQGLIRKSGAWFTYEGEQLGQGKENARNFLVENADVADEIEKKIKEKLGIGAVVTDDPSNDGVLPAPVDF
# Genome polyprotein = Genome polyprotein (dengue virus type 2, UniProt P29990); assay: flavivirus cap methylation enzyme inhibition – biochemical, confirmation dose response, primary screen (AID 588689); format: functional
# [6] = Intein inhibitors as potential Tuberculosis drugs, a cytotoxicity screen. [Related pubchem assays (depositor defined):AID2221, AID2223, AID434968, AID435010, AID449749, AID449750, AID489010]; format: functional
# [7] = Luminescence Cell-Based Dose Retest to Confirm Inhibitors of Cancer Stem Cells. [Related pubchem assays (depositor defined):AID2717, AID2721]; format: functional; conditions: Homo sapiens
# Vero = assay: viability of Vero cells under compound – cytotoxicity control for flavivirus capping enzyme inhibitors (AID 588742); format: functional; conditions: Chlorocebus sabaeus
# Bcl-2-like protein 10 = Bcl-2-like protein 10 (Homo sapiens, UniProt Q9HD36); assay: Concentration-response of Bcl-B inhibitors by biochemical FP with TR3 (AID 1243); format: functional
# NADPH oxidase 1 = target: T3, NADPH oxidase 1 (Homo sapiens, UniProt Q9Y5S8); assay: Luminescence-based cell-based dose response assay to identify inhibitors of NADPH oxidase 1 (NOX1).; format: functional
# T3 sequence (Q9Y5S8 whole entry): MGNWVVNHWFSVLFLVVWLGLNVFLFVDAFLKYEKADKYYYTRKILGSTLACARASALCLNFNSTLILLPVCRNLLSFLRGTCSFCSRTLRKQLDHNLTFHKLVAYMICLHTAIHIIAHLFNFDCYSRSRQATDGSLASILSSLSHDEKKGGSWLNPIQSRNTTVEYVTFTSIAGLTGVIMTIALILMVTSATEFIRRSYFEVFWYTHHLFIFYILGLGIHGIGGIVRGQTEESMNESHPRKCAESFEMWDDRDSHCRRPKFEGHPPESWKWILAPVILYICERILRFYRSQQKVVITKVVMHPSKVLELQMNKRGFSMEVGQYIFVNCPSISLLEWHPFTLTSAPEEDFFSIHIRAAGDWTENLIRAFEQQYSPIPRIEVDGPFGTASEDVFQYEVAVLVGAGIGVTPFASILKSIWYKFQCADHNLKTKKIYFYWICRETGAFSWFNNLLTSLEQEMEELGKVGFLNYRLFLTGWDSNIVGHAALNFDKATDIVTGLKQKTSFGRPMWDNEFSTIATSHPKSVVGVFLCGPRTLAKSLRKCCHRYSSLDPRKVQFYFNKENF
# [8] = target: T4, Mannose-6-phosphate isomerase (Homo sapiens, UniProt P34949); assay: MPI enzyme activity inhibition – biochemical, fluorescence intensity, coupled assay, primary screen (AID 1209)
# T4 sequence (P34949 whole entry): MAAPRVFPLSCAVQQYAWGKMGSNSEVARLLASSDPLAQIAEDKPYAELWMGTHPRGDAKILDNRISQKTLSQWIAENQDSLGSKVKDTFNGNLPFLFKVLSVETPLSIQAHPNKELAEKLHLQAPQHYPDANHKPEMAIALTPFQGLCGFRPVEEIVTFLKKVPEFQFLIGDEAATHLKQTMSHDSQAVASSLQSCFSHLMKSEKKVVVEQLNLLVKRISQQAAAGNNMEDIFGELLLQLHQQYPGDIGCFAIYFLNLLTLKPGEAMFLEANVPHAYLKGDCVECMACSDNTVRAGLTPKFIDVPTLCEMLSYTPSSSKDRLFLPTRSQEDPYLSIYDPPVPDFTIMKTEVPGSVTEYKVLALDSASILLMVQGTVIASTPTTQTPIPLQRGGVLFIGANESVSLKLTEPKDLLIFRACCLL
# [9] = target: T5, Corticotropin-releasing factor receptor 2/Corticotropin-releasing factor-binding protein (Homo sapiens, UniProt P24387+Q13324); assay: Dose Response confirmation of uHTS hits for small molecule antagonists of the CRF-binding protein and CRF-R2 receptor complex.; format: functional; conditions: read-out: IC50_Mean
# T5 sequence (Q13324 whole entry): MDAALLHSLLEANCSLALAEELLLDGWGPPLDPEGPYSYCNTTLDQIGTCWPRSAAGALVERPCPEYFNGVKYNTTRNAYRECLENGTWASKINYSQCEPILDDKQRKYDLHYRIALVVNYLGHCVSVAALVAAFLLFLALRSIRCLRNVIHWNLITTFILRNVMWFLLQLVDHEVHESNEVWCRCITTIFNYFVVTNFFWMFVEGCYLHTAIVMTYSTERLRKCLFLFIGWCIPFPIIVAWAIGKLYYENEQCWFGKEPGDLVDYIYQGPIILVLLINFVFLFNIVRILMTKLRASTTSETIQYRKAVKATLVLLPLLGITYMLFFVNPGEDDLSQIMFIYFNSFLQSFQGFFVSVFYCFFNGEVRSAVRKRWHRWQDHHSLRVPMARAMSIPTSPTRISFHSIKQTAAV
# T5 sequence (P24387 whole entry): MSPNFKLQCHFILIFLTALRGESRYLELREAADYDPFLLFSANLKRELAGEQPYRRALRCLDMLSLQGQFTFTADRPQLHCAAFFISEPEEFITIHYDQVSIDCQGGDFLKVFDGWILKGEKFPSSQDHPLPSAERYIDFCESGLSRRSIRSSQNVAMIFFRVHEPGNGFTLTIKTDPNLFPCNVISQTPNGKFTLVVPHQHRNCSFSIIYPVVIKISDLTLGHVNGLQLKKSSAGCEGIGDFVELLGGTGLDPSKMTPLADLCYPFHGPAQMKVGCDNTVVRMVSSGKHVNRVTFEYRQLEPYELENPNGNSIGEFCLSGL
# Estrogen receptor = target: T6, Estrogen receptor (Homo sapiens, UniProt P03372); assay: ERα coactivator recruitment enhancers – biochemical, TR-FRET, ERα LBD, dose response (AID 737)
# T6 sequence (P03372 whole entry): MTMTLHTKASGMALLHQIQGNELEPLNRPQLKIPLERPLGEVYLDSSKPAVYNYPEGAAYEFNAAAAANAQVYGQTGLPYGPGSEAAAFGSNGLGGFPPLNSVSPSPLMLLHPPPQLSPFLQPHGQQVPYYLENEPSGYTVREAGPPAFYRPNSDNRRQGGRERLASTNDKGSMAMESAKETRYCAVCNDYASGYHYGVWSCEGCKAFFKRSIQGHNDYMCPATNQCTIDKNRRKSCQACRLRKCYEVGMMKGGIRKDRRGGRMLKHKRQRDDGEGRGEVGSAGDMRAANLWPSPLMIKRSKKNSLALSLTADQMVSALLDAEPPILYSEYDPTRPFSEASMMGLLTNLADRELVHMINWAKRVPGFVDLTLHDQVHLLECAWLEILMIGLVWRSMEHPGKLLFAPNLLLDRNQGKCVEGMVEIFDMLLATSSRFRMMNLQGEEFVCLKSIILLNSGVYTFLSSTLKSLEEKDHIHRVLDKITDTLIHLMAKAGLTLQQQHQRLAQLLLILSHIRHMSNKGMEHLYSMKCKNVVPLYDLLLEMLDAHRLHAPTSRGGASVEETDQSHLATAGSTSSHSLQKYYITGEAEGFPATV
# [10] = target: T5, Corticotropin-releasing factor receptor 2/Corticotropin-releasing factor-binding protein; assay: activators of CRF receptor 2 with binding protein – uHTS hits, confirmation (AID 602473); format: functional; conditions: read-out: EC50_Mean
# [11] = target: Lytic switch protein BZLF1 (Epstein-Barr virus (strain B95-8) (HHV-4) (Human herpesvirus 4), UniProt P03206); assay: inhibition of BZLF1 ZTA DNA binding – biochemical, fluorescence polarization, Epstein-Barr virus, 1536-well, counter-screen for EBNA-1 inhibitor project, dose response (AID 2377); parameters: species or system human gammaherpesvirus 4;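 note: fluorescence polarization of Cy5-labelled ZRE DNA probe bound by purified Zta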
# [12] = target: Epstein-Barr nuclear antigen 1 (Epstein-Barr virus (strain B95-8) (HHV-4) (Human herpesvirus 4), UniProt P03211); assay: inhibition of EBV nuclear antigen 1 DNA binding – biochemical, fluorescence polarization, 1536-well, dose response (AID 2381); parameters: species or system human gammaherpesvirus 4;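 note: fluorescence polarization of a Cy5 DNA probe bound by EBNA-1 protein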
# [13] = target: T7, Calpain-2 catalytic subunit (Sus scrofa, UniProt P43367); assay: m-calpain protease blockers, concentration series – biochemical, fluorogenic peptide substrate, dose response (AID 1420); format: functional
# T7 sequence (P43367 whole entry): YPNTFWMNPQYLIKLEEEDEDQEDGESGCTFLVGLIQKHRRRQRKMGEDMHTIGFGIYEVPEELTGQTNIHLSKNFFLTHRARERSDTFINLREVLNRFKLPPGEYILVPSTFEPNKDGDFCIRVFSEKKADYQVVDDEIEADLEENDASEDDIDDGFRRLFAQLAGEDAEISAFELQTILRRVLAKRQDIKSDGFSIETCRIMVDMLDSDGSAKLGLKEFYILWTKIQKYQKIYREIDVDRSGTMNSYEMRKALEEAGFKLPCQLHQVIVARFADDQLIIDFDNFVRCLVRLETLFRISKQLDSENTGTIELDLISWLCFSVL
# Sequence of Bcl-2-like protein 10 (Q9HD36 whole entry): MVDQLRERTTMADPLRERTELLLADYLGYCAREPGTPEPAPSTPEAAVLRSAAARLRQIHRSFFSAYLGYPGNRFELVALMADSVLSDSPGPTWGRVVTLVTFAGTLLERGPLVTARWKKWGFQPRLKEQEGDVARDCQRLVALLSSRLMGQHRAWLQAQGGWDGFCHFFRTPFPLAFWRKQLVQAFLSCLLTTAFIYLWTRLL
# Sequence of Hepatocyte nuclear factor 4-alpha (P41235 whole entry, the tested form may be a part): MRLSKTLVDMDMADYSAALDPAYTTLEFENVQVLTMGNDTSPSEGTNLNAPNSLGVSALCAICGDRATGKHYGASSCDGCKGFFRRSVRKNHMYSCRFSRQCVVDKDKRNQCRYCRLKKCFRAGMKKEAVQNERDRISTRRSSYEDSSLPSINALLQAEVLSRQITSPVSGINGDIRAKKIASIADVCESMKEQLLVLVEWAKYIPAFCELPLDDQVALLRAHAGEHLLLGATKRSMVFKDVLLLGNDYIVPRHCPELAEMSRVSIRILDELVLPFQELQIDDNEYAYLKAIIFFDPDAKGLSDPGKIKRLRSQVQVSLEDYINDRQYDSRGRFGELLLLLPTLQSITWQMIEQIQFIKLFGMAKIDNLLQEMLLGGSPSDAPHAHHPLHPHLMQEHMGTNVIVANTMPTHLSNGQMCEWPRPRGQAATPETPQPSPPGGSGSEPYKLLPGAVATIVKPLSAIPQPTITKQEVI
# Sequence of Lytic switch protein BZLF1 (P03206 whole entry): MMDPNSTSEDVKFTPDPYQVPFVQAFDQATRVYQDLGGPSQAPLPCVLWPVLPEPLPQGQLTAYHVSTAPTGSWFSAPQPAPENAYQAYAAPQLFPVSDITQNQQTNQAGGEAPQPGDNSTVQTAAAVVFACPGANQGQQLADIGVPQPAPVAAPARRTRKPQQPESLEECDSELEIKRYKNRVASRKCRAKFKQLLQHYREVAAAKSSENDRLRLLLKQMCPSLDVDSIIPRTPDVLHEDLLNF
# Sequence of Genome polyprotein (P29990 2492-3391 limits assumed): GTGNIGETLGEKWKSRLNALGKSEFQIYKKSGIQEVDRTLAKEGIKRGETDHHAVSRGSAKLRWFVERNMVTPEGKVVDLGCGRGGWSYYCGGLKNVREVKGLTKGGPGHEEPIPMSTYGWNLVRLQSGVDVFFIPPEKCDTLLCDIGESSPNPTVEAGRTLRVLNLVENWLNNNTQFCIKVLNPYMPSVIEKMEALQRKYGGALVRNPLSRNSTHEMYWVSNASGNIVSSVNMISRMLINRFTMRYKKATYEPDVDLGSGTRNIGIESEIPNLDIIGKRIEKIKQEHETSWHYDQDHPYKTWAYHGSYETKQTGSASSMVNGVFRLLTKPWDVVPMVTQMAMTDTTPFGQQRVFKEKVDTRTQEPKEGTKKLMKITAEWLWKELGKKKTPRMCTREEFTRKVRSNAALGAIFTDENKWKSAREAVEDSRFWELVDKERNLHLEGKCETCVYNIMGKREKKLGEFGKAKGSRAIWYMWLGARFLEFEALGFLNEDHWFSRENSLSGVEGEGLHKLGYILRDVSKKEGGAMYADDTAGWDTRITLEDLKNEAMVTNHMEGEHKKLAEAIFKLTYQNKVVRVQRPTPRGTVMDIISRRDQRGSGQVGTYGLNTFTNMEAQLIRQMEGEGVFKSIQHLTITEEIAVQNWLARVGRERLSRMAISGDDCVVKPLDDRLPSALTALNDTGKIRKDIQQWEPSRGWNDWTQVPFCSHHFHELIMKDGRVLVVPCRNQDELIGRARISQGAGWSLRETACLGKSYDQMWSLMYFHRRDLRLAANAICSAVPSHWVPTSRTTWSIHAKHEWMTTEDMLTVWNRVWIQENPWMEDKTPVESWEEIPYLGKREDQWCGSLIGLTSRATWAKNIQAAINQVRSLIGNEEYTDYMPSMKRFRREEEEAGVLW
# Sequence of Epstein-Barr nuclear antigen 1 (P03211 whole entry): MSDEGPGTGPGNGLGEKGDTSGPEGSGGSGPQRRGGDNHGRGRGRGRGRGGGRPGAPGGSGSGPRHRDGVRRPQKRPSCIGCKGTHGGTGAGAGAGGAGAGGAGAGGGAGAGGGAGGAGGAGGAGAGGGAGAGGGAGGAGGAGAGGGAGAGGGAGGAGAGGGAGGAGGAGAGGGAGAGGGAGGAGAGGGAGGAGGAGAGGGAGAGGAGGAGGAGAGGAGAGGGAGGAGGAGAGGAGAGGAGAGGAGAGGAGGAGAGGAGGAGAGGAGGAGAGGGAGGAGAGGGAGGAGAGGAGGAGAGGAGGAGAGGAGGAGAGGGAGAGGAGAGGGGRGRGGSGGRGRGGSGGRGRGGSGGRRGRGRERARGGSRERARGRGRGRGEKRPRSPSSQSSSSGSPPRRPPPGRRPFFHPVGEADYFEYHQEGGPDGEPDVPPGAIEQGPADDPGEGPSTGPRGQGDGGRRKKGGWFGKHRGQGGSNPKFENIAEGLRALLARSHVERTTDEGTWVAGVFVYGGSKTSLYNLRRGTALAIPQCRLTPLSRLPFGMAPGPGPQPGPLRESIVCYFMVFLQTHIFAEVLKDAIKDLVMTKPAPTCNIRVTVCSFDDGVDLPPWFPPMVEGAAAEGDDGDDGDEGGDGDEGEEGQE
# Sequence of Potassium voltage-gated channel subfamily KQT member 2 (O88943 whole entry W236L): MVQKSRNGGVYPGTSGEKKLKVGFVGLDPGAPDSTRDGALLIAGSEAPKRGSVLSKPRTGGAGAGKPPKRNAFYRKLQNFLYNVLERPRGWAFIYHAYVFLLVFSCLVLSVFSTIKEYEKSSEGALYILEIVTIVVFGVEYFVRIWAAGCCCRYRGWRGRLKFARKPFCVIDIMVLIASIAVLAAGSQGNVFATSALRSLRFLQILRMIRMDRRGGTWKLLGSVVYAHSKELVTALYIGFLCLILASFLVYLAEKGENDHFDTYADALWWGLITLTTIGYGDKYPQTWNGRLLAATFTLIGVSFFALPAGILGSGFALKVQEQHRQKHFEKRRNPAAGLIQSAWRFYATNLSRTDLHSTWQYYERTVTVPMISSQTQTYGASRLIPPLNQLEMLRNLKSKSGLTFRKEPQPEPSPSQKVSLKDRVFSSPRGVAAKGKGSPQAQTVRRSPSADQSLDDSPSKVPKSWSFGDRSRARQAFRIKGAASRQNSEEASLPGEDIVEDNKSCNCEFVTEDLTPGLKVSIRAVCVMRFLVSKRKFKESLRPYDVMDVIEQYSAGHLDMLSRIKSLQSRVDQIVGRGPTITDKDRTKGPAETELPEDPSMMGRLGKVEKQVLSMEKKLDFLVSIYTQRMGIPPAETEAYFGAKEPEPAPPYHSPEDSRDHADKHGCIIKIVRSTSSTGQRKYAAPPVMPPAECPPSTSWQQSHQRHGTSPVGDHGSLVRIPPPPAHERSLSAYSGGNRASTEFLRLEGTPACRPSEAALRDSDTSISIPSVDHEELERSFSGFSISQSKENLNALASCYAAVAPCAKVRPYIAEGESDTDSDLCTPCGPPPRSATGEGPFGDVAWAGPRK
smiles,measurement,setting,value
CSc1nnc(NC(=O)c2nc(S(=O)(=O)Cc3ccccc3F)ncc2Cl)s1,AC50,[1],1.55 µM (active)
same,AC50,[2],5 µM (active)
same,AC50,[3],13 µM (active)
same,IC50,[4],3.98 µM (active)
same,EC50,[5],4.19 µM (active)
same,EC50,Protein RecA,3.5 µM (active)
same,IC50,Genome polyprotein,52.3 µM (active)
same,CC50,[6],35.4 µM (active)
same,AC50,[7],2.14 µM (active)
same,CC50,Vero,27.8 µM (active)
Clc1ccc(C2C=C(c3ccccc3)Nc3ncnn32)cc1 (centres undefined),EC50,Bcl-2-like protein 10,14.2 µM (active)
CCOc1ccc(NC(=O)Nc2ccc(N(C)C(C)=O)cc2)cc1,IC50,NADPH oxidase 1,> 20 µM (not active)
CCOC(=O)NC1(Nc2cccc(Cl)c2)Oc2ccccc2O1,IC50,[8],> 50 µM (not active)
COC(=O)c1ccc(CSc2nc3c(cnn3-c3ccc(F)cc3)c(=O)[nH]2)o1,IC50,[9],> 47.1 µM (inactive)
same,EC50,Estrogen receptor,12.9 µM (not active)
same,EC50,[10],> 53 µM (inactive)
CCOC(=O)c1ccc(NC(=O)C2CC(=O)Nc3nc4ccccc4n32)cc1 (centres undefined),IC50,[11],> 111 µM (not active)
same,IC50,[12],> 5.47 µM (active)
same,IC50,[13],> 50 µM (not active)
